Target: T1, Muscarinic acetylcholine receptor M2 (Rattus norvegicus, UniProt P10980)
T1 sequence (P10980 whole entry): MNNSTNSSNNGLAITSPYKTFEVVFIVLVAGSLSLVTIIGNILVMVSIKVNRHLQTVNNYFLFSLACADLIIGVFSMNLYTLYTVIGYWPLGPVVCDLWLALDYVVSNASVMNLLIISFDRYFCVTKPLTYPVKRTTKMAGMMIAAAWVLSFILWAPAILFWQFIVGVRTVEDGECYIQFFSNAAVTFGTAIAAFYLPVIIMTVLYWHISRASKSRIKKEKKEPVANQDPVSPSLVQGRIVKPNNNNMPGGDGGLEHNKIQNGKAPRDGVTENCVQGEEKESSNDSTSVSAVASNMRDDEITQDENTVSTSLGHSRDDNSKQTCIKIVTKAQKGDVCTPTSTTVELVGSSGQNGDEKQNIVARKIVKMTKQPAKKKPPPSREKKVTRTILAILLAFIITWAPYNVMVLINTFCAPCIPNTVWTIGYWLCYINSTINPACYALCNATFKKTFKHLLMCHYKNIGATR

**Q.** For CN(C)CCC(c1ccc(Br)cc1)c1ccccn1 (stereo not drawn) [2-(p-bromo-alpha-(2-dimethylaminoethyl)benzyl)pyridine], which Ki is on record?
**A.** The Ki was > 10000 nM.

**Q.** CC(C)[N+](C)(CCC(C(N)=O)(c1ccccc1)c1ccccc1)C(C)C was tested. Which Ki did it give?
**A.** Its Ki is 1 nM.

**Q.** How did the Ki turn out when O=C(O)C=CC(=O)Oc1ccc(Cl)cc1 [NSC_6445134] was run?
**A.** The Ki was > 10000 nM.

**Q.** With O=C1CCCN1CC#CCN1CCCC1 [1-[4-(2-oxo-pyrrolidin-1-yl)-but-2-ynyl]-pyrrolidinium] as the compound, how does the Ki read?
**A.** Its Ki is 500 nM.

**Q.** With CN(C)CCC(c1ccc(Cl)cc1)c1ccccn1 (stereo not given) [clorfeniramina] as the compound, how does the Ki read?
**A.** Its Ki is > 10000 nM.

— BindingDB's records for doi:10.1073/pnas.71.5.1725 (1974)
